# Results: ChEMBL document CHEMBL3885861, “Open TG-GATES”
# Species: Rattus norvegicus
# Experiment: Open TG-GATES - Regimen: Single
# Type: toxicity, organism-based, Sprague-Dawley
# Set-up: regimen Single, gender Male, age 6 weeks
# Conditions: in vivo, po, 1000 mg/kg, route gavage, dose level High; for APTT / Bas / Eos / Fbg / Hb / Ht / Lym / MCH / MCHC / MCV / Mono / Neu / PT / Plat / RBC / Ret / WBC: tissue Blood; for KIDNEY_L / KIDNEY_R / KIDNEY_TOTAL: tissue Kidney; for LIVER: tissue Liver; for A/G / ALP / ALT / AST / BUN / CRE / Ca / Cl / DBIL / GLC / IP / K / LDH / Na / PL / RALB / TBIL / TC / TG / TP / gamma-GTP: tissue Plasma
structure (smiles),measurement,setting,value
O=C(N[C@H](CO)[C@H](O)c1ccc([N+](=O)[O-])cc1)C(Cl)Cl [CHLORAMPHENICOL],TERMINAL_BW,3 h,221.6 g
same,APTT,3 h,17.1 s
same,Bas,3 h,0%
same,Eos,3 h,1%
same,Fbg,3 h,263.6 mg/dL
same,Hb,3 h,13.5 g/dL
same,Ht,3 h,39.6%
same,Lym,3 h,73%
same,MCH,3 h,21.7 pg
same,MCHC,3 h,34.2%
same,MCV,3 h,63.7 fL
same,Mono,3 h,3.8%
same,Neu,3 h,21.8%
same,PT,3 h,14.9 s
same,Plat,3 h,112.6 x10_4/uL
same,RBC,3 h,622.4 x10_4/ul
same,Ret,3 h,7.8%
same,WBC,3 h,76.3 x10_2/uL
same,KIDNEY_L,3 h,1 g
same,KIDNEY_R,3 h,1 g
same,KIDNEY_TOTAL,3 h,2 g
same,LIVER,3 h,9.5 g
same,A/G,3 h,0.9
same,ALP,3 h,1586 IU/L
same,ALT,3 h,42 IU/L
same,AST,3 h,78.4 IU/L
same,BUN,3 h,8.4 mg/dL
same,CRE,3 h,0.2 mg/dL
same,Ca,3 h,10.9 mg/dL
same,Cl,3 h,106.6 meq/L
same,DBIL,3 h,0.012 mg/dL
same,GLC,3 h,182.4 mg/dL
same,IP,3 h,9 mg/dL
same,K,3 h,4.2 meq/L
same,LDH,3 h,56.4 IU/L
same,Na,3 h,140 meq/L
same,PL,3 h,137.2 mg/dL
same,RALB,3 h,2.6 g/dL
same,TBIL,3 h,0.064 mg/dL
same,TC,3 h,70.4 mg/dL
same,TG,3 h,63 mg/dL
same,TP,3 h,5.5 g/dL
same,gamma-GTP,3 h,1 IU/L
same,TERMINAL_BW,6 h,221.4 g
same,APTT,6 h,16.8 s
same,Bas,6 h,0%
same,Eos,6 h,1%
same,Fbg,6 h,278.4 mg/dL
same,Hb,6 h,13.9 g/dL
same,Ht,6 h,45.6%
same,Lym,6 h,73.8%
same,MCH,6 h,21.1 pg
same,MCHC,6 h,30.4%
same,MCV,6 h,69.3 fL
same,Mono,6 h,2%
same,Neu,6 h,23.2%
same,PT,6 h,15 s
same,Plat,6 h,113 x10_4/uL
same,RBC,6 h,657.2 x10_4/ul
same,Ret,6 h,7.7%
same,WBC,6 h,59.5 x10_2/uL
same,KIDNEY_L,6 h,0.9 g
same,KIDNEY_R,6 h,0.9 g
same,KIDNEY_TOTAL,6 h,1.8 g
same,LIVER,6 h,8.5 g
same,A/G,6 h,0.9
same,ALP,6 h,1369 IU/L
same,ALT,6 h,33.2 IU/L
same,AST,6 h,69 IU/L
same,BUN,6 h,7.8 mg/dL
same,CRE,6 h,0.2 mg/dL
same,Ca,6 h,11.1 mg/dL
same,Cl,6 h,107 meq/L
same,DBIL,6 h,0.01 mg/dL
same,GLC,6 h,186.2 mg/dL
same,IP,6 h,10.3 mg/dL
same,K,6 h,4.1 meq/L
same,LDH,6 h,57.6 IU/L
same,Na,6 h,141.4 meq/L
same,PL,6 h,128.2 mg/dL
same,RALB,6 h,2.6 g/dL
same,TBIL,6 h,0.072 mg/dL
same,TC,6 h,70 mg/dL
same,TG,6 h,26.2 mg/dL
same,TP,6 h,5.5 g/dL
same,gamma-GTP,6 h,1 IU/L
same,TERMINAL_BW,9 h,221.1 g
same,APTT,9 h,17 s
same,Bas,9 h,0%
same,Eos,9 h,0.8%
same,Fbg,9 h,281.4 mg/dL
same,Hb,9 h,13.8 g/dL
same,Ht,9 h,44%
same,Lym,9 h,80.2%
same,MCH,9 h,21.4 pg
same,MCHC,9 h,31.4%
same,MCV,9 h,68.2 fL
same,Mono,9 h,1.6%
same,Neu,9 h,17.8%
same,PT,9 h,15.6 s
same,Plat,9 h,107.2 x10_4/uL
same,RBC,9 h,644.8 x10_4/ul
same,Ret,9 h,7.5%
same,WBC,9 h,53.4 x10_2/uL
same,KIDNEY_L,9 h,0.9 g
same,KIDNEY_R,9 h,0.9 g
same,KIDNEY_TOTAL,9 h,1.8 g
same,LIVER,9 h,8.5 g
same,A/G,9 h,0.9
same,ALP,9 h,1491.8 IU/L
same,ALT,9 h,30 IU/L
same,AST,9 h,68 IU/L
same,BUN,9 h,8.2 mg/dL
same,CRE,9 h,0.2 mg/dL
same,Ca,9 h,10.9 mg/dL
same,Cl,9 h,105.4 meq/L
same,DBIL,9 h,0.018 mg/dL
same,GLC,9 h,176.6 mg/dL
same,IP,9 h,10.6 mg/dL
same,K,9 h,4.2 meq/L
same,LDH,9 h,69.6 IU/L
same,Na,9 h,140 meq/L
same,PL,9 h,125.8 mg/dL
same,RALB,9 h,2.5 g/dL
same,TBIL,9 h,0.074 mg/dL
same,TC,9 h,66.6 mg/dL
same,TG,9 h,44 mg/dL
same,TP,9 h,5.5 g/dL
same,gamma-GTP,9 h,1 IU/L
same,TERMINAL_BW,24 h,222.4 g
same,APTT,24 h,16.6 s
same,Bas,24 h,0%
same,Eos,24 h,0.8%
same,Fbg,24 h,255.8 mg/dL
same,Hb,24 h,14.2 g/dL
same,Ht,24 h,44.2%
same,Lym,24 h,83%
same,MCH,24 h,21.3 pg
same,MCHC,24 h,32.1%
same,MCV,24 h,66.4 fL
same,Mono,24 h,4%
same,Neu,24 h,11.6%
same,PT,24 h,15.7 s
same,Plat,24 h,121.3 x10_4/uL
same,RBC,24 h,665 x10_4/ul
same,Ret,24 h,6.3%
same,WBC,24 h,54.2 x10_2/uL
same,KIDNEY_L,24 h,0.9 g
same,KIDNEY_R,24 h,0.9 g
same,KIDNEY_TOTAL,24 h,1.9 g
same,LIVER,24 h,9.4 g
same,A/G,24 h,0.9
same,ALP,24 h,1571.8 IU/L
same,ALT,24 h,45.8 IU/L
same,AST,24 h,79.2 IU/L
same,BUN,24 h,14.4 mg/dL
same,CRE,24 h,0.2 mg/dL
same,Ca,24 h,11.6 mg/dL
same,Cl,24 h,106.8 meq/L
same,DBIL,24 h,0.016 mg/dL
same,GLC,24 h,184.8 mg/dL
same,IP,24 h,9.1 mg/dL
same,K,24 h,4.1 meq/L
same,LDH,24 h,64 IU/L
same,Na,24 h,142.2 meq/L
same,PL,24 h,122.4 mg/dL
same,RALB,24 h,2.6 g/dL
same,TBIL,24 h,0.068 mg/dL
same,TC,24 h,65.2 mg/dL
same,TG,24 h,50.8 mg/dL
same,TP,24 h,5.6 g/dL
same,gamma-GTP,24 h,1 IU/L
